According to US20110217265A1, “Screening for Inhibitors of HCV Amphipathic Helix (AH) Function” (priority 2008, published 2011):

Key:
[1] = biological target: genotype 2a 4BAH2 (Hepatitis C virus genotype 2a, UniProt Q99IB8); test: QCM-D of 4BAH2 membrane association with POPC bilayer, genotype 2a; assay type: binding; design: purchased Anaspec Corporation (San Jose, Calif., USA)
Method: (§1) Quartz Crystal Microbalance-Dissipation (QCM-D). Adsorption kinetics and the properties of the adsorbed layer were studied using a Q-Sense E4, multiple channel system (Q-Sense AB, Gothenburg, Sweden). The samples are introduced using a peristaltic pump with flow rate of 0.1 mL·min^−1. AT-cut quartz crystals (Q-Sense) of 14 mm in diameter coated with a SiOx layer were used for all vesicle interaction and adsorption experiments. Each QCM crystal was treated with oxygen plasma at ˜80 watts for 3 min prior to measurement (March Plasmod Plasma Etcher, March Instruments, California, USA). Each crystal was initially driven near its resonance frequency as indicated by a maximum in the current. To capture the characteristic dissipation, the drive circuit was short-circuited and the exponential decay of the crystal oscillation was recorded and analyzed, yielding the frequency and dissipation changes at 5, 15, 25, 35, 45, 55, and 65 MHz. The temperature of the Q-Sense cell was set at 25.0° C. and accurately controlled by a Peltier element in the cell with fluctuation smaller than ±0.05° C. All experiments were repeated at least three times, with a standard deviation of less than 2%.

[2] = biological target: T1, 4BAH2 peptide (Hepatitis C virus genotype 1b, UniProt Q9WMX2); test: AFM of 4BAH2 peptide oligomerization on SiOx substrate; assay type: biochemical
T1 construct: purchased Anaspec Corporation (San Jose, Calif., USA); host or cells: chemical synthesis
Method: Atomic Force Microscopy. The AFM experiments were carried out on a XE-Bio (Park Systems Suwon, Korea) in contact and non-contact modes. Rectangular-shaped silicon cantilevers were used (SICON for contact mode and ACT for non-contact mode, AppNano, Santa Clara, Calif.). […] All measurements were performed in a PBS buffer. Images in fluid were obtained both in contact mode with an imaging force of less than 200 pN and in noncontact mode. However, images presented in this manuscript were only obtained in non-contact mode in fluid. The scan line speed was optimized between 0.3 Hz to 1 Hz with a pixel number of 256×256, depending on the scan size. Images were recorded in height, amplitude, phase, and error modes. All measurements were done on the height images. All images shown were subjected to a first order plane-fitting procedure to compensate for sample tilt. The cross-sectional analysis was carried out on images subjected only to a first order plane-fitting procedure. Topographical and grain analyses were performed using the software XEI 1.7.1 supplied by Park Systems (Suwon, Korea).

[3] = biological target: genotype 1b 4BAH2 (Hepatitis C virus genotype 1b, UniProt Q9WMX2); test: QCM-D of 4BAH2 membrane association with POPC bilayer, genotype 1b; assay type: binding; design: purchased Anaspec Corporation (San Jose, Calif., USA)
Method: as §1

[4] = system: 2a HCV RNA replicon; test: 2a HCV RNA replicon assay (FL-J6/JFH-5'C19Rluc2AUbi, luciferase); assay type: cell-based, Hepatitis C Virus genotype 2a; settings: full-length J6/JFH Luc, luciferase at 72 hr of treatment
Summary of the method: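 Huh7.5 cells electroporated with in vitro-transcribed FL-J6/JFH-5′C19Rluc2AUbi RNA (full-length genotype 2a, Renilla luciferase) and treated from 24 h, with compound refreshed daily for 72 h. Replication measured as Renilla luminescence, normalized to untreated or matched-DMSO samples. Alamar Blue fluorescence on the same wells assessed cytotoxicity.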

genotype 1b 4BAH2, sequence (Q9WMX2 1754-1776): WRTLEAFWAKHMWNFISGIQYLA
genotype 2a 4BAH2, sequence (Q99IB8 1758-1780): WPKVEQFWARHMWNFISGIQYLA

CC(C)CN(C)c1nc(N)c(C(=O)NC(=N)N)nc1Cl [C4, 3-amino-N-carbamimidoyl-6-chloro-5-(isobutyl(methyl)amino)pyrazine-2-carboxamide]
Effect on genotype 2a 4BAH2 membrane association (QCM-D) [1]: no effect
Effect on 4BAH2 peptide aggregation / self-oligomerization (AFM) [2]: inhibit peptide aggregation
Effect on genotype 1b 4BAH2 membrane association (QCM-D) [3]: no effect
Inhibition of HCV genotype 2a viral genome replication [4]: exhibited inhibition
